Results published in US8796324B2, “Substituted 2-acetamido-5-aryl-1,2,4-triazolones and use thereof” (Bayer Intellectual Property GmbH, priority 2009, dated 2014).
Where a name gives a salt, the structure may show the parent alone.

Assays:
[1] = biological target: T1, human V2 receptor (Homo sapiens, UniProt P30518); assay: Cellular in vitro assay for determining the vasopressin receptor activity (aequorin luminescence); assay type: cell-based; conditions: CHO cell line transfected with the human V2 receptor (and Gα16); agonist [Arg8]-vasopressin; read-out: IC50 hV2
T1 construct: expressed in transfected cells; host or cells: CHO K1 (constitutively expressing modified aequorin; co-transfected with promiscuous G-alpha-16)
T1 sequence (P30518 whole entry): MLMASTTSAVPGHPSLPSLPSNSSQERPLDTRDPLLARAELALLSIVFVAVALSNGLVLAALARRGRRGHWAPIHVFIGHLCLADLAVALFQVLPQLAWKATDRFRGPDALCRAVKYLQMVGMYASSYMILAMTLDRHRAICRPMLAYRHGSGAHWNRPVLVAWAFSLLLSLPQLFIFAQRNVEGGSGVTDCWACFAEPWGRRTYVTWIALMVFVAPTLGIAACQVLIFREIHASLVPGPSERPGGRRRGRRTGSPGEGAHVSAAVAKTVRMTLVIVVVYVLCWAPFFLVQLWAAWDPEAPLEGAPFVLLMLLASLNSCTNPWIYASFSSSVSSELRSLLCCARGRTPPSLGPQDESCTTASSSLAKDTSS
Description: (§1) B-1. Cellular In Vitro Assay for Determining the Vasopressin Receptor Activity
(§2) The identification of agonists and antagonists of the V1a and V2 vasopressin receptors from humans and rats and also the quantification of the activity of the substances described here took place using recombinant cell lines. These cells derive originally from a hamster ovary epithelial cell (Chinese Hamster Ovary, CHO K1, ATCC: American Type Culture Collection, Manassas, Va. 20108, USA). The test cell lines constitutively express a modified form of the calcium-sensitive photoprotein aequorin, which, after reconstitution with the cofactor coelenterazine, emits light when there are increases in the free calcium concentration (Rizzuto R., Simpson A. W., Brini M., Pozzan T.; Nature 358 (1992) 325-327). In addition, the cells are stably transfected with the human or rat V1a or V2 receptors. In the case of the Gs-coupling V2 receptors, the cells are stably transfected with a further gene, which codes for the promiscuous Gα16 protein (Amatruda T. T., Steele D. A., Slepak V. Z., Simon M. I., Proc. Nat. Acad. Sci. USA 88 (1991), 5587-5591), either independently or as a fusion gene. The resulting vasopressin receptor test cells react to stimulation of the recombinantly expressed vasopressin receptors by intracellular release of calcium ions, which can be quantified by the resulting aequorin luminescence using a suitable luminometer (Milligan G., Marshall F., Rees S., Trends in Pharmaco. Sci. 17 (1996) 235-237).
(§3) On the day before the assay, the cells are plated out in culture medium (DMEM, 10% FCS, 2 mM glutamine, 10 mM HEPES) in 384-well microtiter plates and kept in a cell incubator (96% humidity, 5% v/v carbon dioxide, 37° C.). On the day of the assay, the culture medium is replaced by a Tyrode solution (140 mM sodium chloride, 5 mM potassium chloride, 1 mM magnesium chloride, 2 mM calcium chloride, 20 mM glucose, 20 mM HEPES), which additionally contains the cofactor coelenterazine (50 μM), and the microtiter plate is then incubated for a further 3-4 hours. The test substances in various concentrations are placed for 10 to 20 minutes in the wells of the microtiter plate before the agonist [Arg8]-vasopressin is added, and the resulting light signal is measured immediately in the luminometer. The IC50 values are calculated using the GraphPad PRISM computer program (Version 3.02).
(§4) The table below lists representative IC50 values for the compounds of the invention on the cell line transfected with the human V1a or V2 receptor: […]

[2] = biological target: T2, human V1a receptor (Homo sapiens, UniProt P37288); assay: as above; assay type: cell-based; conditions: CHO cell line transfected with the human V1a receptor; agonist [Arg8]-vasopressin; read-out: IC50 hV1a
T2 construct: expressed in transfected cells; host or cells: CHO K1 (constitutively expressing modified aequorin)
T2 sequence (P37288 whole entry): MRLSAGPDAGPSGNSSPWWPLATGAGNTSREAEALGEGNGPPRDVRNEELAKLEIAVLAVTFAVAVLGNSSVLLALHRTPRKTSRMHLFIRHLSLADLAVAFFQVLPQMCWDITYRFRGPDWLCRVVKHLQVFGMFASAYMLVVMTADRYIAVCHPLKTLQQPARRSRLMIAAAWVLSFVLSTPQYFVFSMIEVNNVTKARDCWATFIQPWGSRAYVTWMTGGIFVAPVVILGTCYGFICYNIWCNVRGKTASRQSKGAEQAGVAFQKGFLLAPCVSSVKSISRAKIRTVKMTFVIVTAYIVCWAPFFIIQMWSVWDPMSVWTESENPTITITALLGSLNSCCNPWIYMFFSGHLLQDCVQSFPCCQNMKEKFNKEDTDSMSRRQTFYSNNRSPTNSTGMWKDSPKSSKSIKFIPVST
Description: as §1, §2, §3, §4

IC50 [1] [nM] | IC50 [2] [nM] | Compound
13.9 | 1.4 | NC(=O)OCC(NC(=O)Cn1nc(-c2ccc(Cl)cc2)n(CCC(F)(F)F)c1=O)c1ccccc1C(F)(F)F (single isomer, unassigned) [Example 144, 2-({[3-(4-Chlorophenyl)-5-oxo-4-(3,3,3-trifluoropropyl)-4,5-dihydro-1H-1,2,4-triazol-1-yl]acetyl}amino)-2-[2-(trifluoromethyl)phenyl]ethyl carbamate]
231 | 88.6 | O=C(Cn1nc(-c2ccc(Cl)cc2)n(C[C@H](O)C(F)(F)F)c1=O)NC(CC(F)(F)F)c1ccccc1 (stereo partly drawn) [Example 90, 2-{3-(4-Chlorophenyl)-5-oxo-4-[(2S)-3,3,3-trifluoro-2-hydroxypropyl]-4,5-dihydro-1H-1,2,4-triazol-1-yl}-N-(3,3,3-trifluoro-1-phenylpropyl)acetamide]
2.4 | 21.6 | Cc1cccc([C@H](CO)NC(=O)Cn2nc(-c3ccc(Cl)cc3)n(C[C@H](O)C(F)(F)F)c2=O)c1C [Example 74, 2-{3-(4-Chlorophenyl)-5-oxo-4-[(2S)-3,3,3-trifluoro-2-hydroxypropyl]-4,5-dihydro-1H-1,2,4-triazol-1-yl}-N-[(1R)-1-(2,3-dimethylphenyl)-2-hydroxyethyl]acetamide]
1.4 | 0.9 | NC(=O)NCC(NC(=O)Cn1nc(-c2ccc(Cl)cc2)n(CCC(F)(F)F)c1=O)c1cccc(Cl)c1Cl (single isomer, unassigned) [Example 121, N-[2-(Carbamoylamino)-1-(2,3-dichlorophenyl)ethyl]-2-[3-(4-chlorophenyl)-5-oxo-4-(3,3,3-trifluoropropyl)-4,5-dihydro-1H-1,2,4-triazol-1-yl]acetamide]
9.9 | 1.6 | NC(=O)OCC[C@H](NC(=O)Cn1nc(-c2ccc(Cl)cc2)n(C[C@H](O)C(F)(F)F)c1=O)c1ccccc1C(F)(F)F [Example 70, (3S)-3-[({3-(4-Chlorophenyl)-5-oxo-4-[(2S)-3,3,3-trifluoro-2-hydroxypropyl]-4,5-dihydro-1H-1,2,4-triazol-1-yl}acetyl)amino]-3-[2-(trifluoromethyl)phenyl]propyl carbamate]
4.8 | 36 | CN(C)S(=O)(=O)CC(NC(=O)Cn1nc(-c2ccc(Cl)cc2)n(C[C@H](O)C(F)(F)F)c1=O)c1cccc(C(F)(F)F)c1 (single isomer, unassigned) [Example 141]
4.4 | 2.7 | NC(=O)OCC(NC(=O)Cn1nc(-c2ccc(Cl)cc2)n(C[C@H](O)C(F)(F)F)c1=O)c1cccc(Cl)c1Cl (single isomer, unassigned) [Example 203]
1 | 3.6 | NC(=O)NCC(NC(=O)Cn1nc(-c2ccc(Cl)cc2)n(C[C@H](O)C(F)(F)F)c1=O)c1cccc(Cl)c1Cl (single isomer, unassigned) [Example 62]
7.1 | 2.2 | O=C(Cn1nc(-c2ccc(Cl)cc2)n(C[C@H](O)C(F)(F)F)c1=O)NC(CN1CCNC1=O)c1cccc(C(F)(F)F)c1 (single isomer, unassigned) [Example 152]

Continued, compound first:

Compound | IC50 [1] [nM] | IC50 [2] [nM]
CN(C(=O)Cn1nc(-c2ccc(Cl)cc2)n(C[C@H](O)C(F)(F)F)c1=O)C(CO)c1cccc(C(F)(F)F)c1 (stereo partly drawn) [Example 163, 2-{3-(4-Chlorophenyl)-5-oxo-4-[(2S)-3,3,3-trifluoro-2-hydroxypropyl]-4,5-dihydro-1H-1,2,4-triazol-1-yl}-N-{2-hydroxy-1-[3-(trifluoromethyl)phenyl]ethyl}-N-methylacetamide] | 7.7 | 594
O=C(Cn1nc(-c2ccc(Cl)cc2)n(C[C@H](O)C(F)(F)F)c1=O)NC(CO)c1cccc(C(F)F)c1 (stereo partly drawn) [Example 157, 2-{3-(4-Chlorophenyl)-5-oxo-4-[(2S)-3,3,3-trifluoro-2-hydroxypropyl]-4,5-dihydro-1H-1,2,4-triazol-1-yl}-N-{1-[3-(difluoromethyl)phenyl]-2-hydroxyethyl}acetamide] | 5.1 | 12.4
O=C(Cn1nc(-c2ccc(Cl)cc2)n(CC2CCCCC2)c1=O)NC(CO)c1cccc(Cl)c1F (stereo not shown) [Example 182] | 28 | 304
O=C(Cn1nc(-c2ccc(Cl)cc2)n(C[C@H](O)C(F)(F)F)c1=O)NC(CN1CCOC1=O)c1cccc(C(F)(F)F)c1 (single isomer, unassigned) [Example 149] | 15 | 2
COc1cccc(C(CCO)NC(=O)Cn2nc(-c3ccc(Cl)cc3)n(C3CC3)c2=O)c1 (racemic) [Example 89, 2-[3-(4-Chlorophenyl)-4-cyclopropyl-5-oxo-4,5-dihydro-1H-1,2,4-triazol-1-yl]-N-[3-hydroxy-1-(3-methoxyphenyl)propyl]acetamide] | 290 | 2880
C[C@@](CO)(NC(=O)Cn1nc(-c2ccc(Cl)cc2)n(C[C@H](O)C(F)(F)F)c1=O)c1cccc(C(F)(F)F)c1 [Example 44, 2-{3-(4-Chlorophenyl)-5-oxo-4-[(2S)-3,3,3-trifluoro-2-hydroxypropyl]-4,5-dihydro-1H-1,2,4-triazol-1-yl}-N-{(2R)-1-hydroxy-2-[3-(trifluoromethyl)phenyl]propan-2-yl}acetamide] | 1.7 | 44
NCC(NC(=O)Cn1nc(-c2ccc(Cl)cc2)n(C[C@H](O)C(F)(F)F)c1=O)c1cccc(C(F)(F)F)c1 (mixture of isomers) [Example 10, N-{2-Amino-1-[3-(trifluoromethyl)phenyl]ethyl}-2-{3-(4-chlorophenyl)-5-oxo-4-[(2S)-3,3,3-trifluoro-2-hydroxypropyl]-4,5-dihydro-1H-1,2,4-triazol-1-yl}acetamide hydrochloride (diastereomer mixture)] | 6.3 | 10.4
O=C(Cn1nc(-c2ccc(Cl)cc2)n(C[C@H](O)C(F)(F)F)c1=O)NC(c1cccc(C(F)(F)F)c1)C(O)C(F)(F)F (mixture of isomers) [Example 78, 2-{3-(4-Chlorophenyl)-5-oxo-4-[(2S)-3,3,3-trifluoro-2-hydroxypropyl]-4,5-dihydro-1H-1,2,4-triazol-1-yl}-N-{3,3,3-trifluoro-2-hydroxy-1-[3-(trifluoromethyl)phenyl]propyl}acetamide] | 30.4 | 21.1
CS(=O)(=O)NCC(NC(=O)Cn1nc(-c2ccc(Cl)cc2)n(C[C@H](O)C(F)(F)F)c1=O)c1ccccc1C(F)(F)F (single isomer, unassigned; diastereomer ii) [Example 26] | 3.2 | 0.9
Cc1csc(-c2nn(CC(=O)NC(CO)c3cccc(Cl)c3F)c(=O)n2CC(C)C)c1Cl (stereo not shown) [Example 172] | 136 | 91
O=C(Cn1nc(-c2ccc(Cl)cc2)n(C[C@H](O)C(F)(F)F)c1=O)N[C@@H](CCO)c1ccccc1C(F)(F)F [Example 69, 2-{3-(4-Chlorophenyl)-5-oxo-4-[(2S)-3,3,3-trifluoro-2-hydroxypropyl]-4,5-dihydro-1H-1,2,4-triazol-1-yl}-N-{(1S)-3-hydroxy-1-[2-(trifluoromethyl)phenyl]propyl}acetamide] | 9.7 | 1.6
NC(=O)OCCC(NC(=O)Cn1nc(-c2ccc(Cl)cc2)n(C[C@H](O)C(F)(F)F)c1=O)c1cccc(Cl)c1Cl (single isomer, unassigned) [Example 73] | 1.6 | 10.8
NC(=O)OCC(NC(=O)Cn1nc(-c2ccc(Cl)cc2)n(/C=C/C(F)(F)F)c1=O)c1cccc(C(F)(F)F)c1 (single isomer, unassigned) [Example 65, 2-[({3-(4-Chlorophenyl)-5-oxo-4-[(1E)-3,3,3-trifluoroprop-1-en-1-yl]-4,5-dihydro-1H-1,2,4-triazol-1-yl}acetyl)amino]-2-[3-(trifluoromethyl)phenyl]ethyl carbamate] | 16.8 | 16.8
COc1ccccc1C(CCOC(N)=O)NC(=O)Cn1nc(-c2ccc(Cl)cc2)n(C[C@H](O)C(F)(F)F)c1=O (stereo partly drawn) [Example 188, 3-[({3-(4-Chlorophenyl)-5-oxo-4-[(2S)-3,3,3-trifluoro-2-hydroxypropyl]-4,5-dihydro-1H-1,2,4-triazol-1-yl}acetyl)amino]-3-(2-methoxyphenyl)propyl carbamate] | 9.9 | 8.2
